{"source": "patent US9884832B2", "about": "(priority 2011, dated 2018)", "data": [{"molecular_target": "AM2 S31 (wild-type serine at position 31 in the M2 protein), influenza virus A/Udorn/72 (Influenza A virus, UniProt P0DOF5)", "sequence (P0DOF5 whole entry, looked up)": "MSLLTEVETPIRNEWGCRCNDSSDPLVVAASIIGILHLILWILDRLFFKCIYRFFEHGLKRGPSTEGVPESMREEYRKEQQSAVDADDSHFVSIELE", "assay": "cell-based", "settings": "100 uM; Xenopus oocytes; activity range class", "values": [{"smiles": "F[B-](F)(F)c1ccc(CNC23CC4CC(CC(C4)C2)C3)cc1.[K+]", "note": "[Example 2a]", "S31 OOcyte Inhibition at 100 uM (%)": "A ((A)=31-95%)"}]}, {"molecular_target": "AM2 S31 (wild-type serine at position 31 in the M2 protein), influenza virus A/Udorn/72 (Influenza A virus, UniProt P0DOF5)", "assay": "cell-based", "settings": "100 uM; Xenopus oocytes; activity range class; read-out: S31 OOcyte Inhibition at 100 uM (%)", "units": {"inhibition at 100 µM": "%"}, "values": [{"smiles": "COc1ccc(CNC23CC4CC(CC(C4)C2)C3)s1", "note": "[Example 75a, N-((5-methoxythiophen-2-yl)methyl)adamantan-1-amine]", "inhibition at 100 µM": "31 to 95"}, {"smiles": "Cc1ncc(-c2ccc(CNC34CC5CC(CC(C5)C3)C4)s2)s1", "note": "[Example 154a, N-((5-(2-methylthiazol-5-yl)thiophen-2-yl)methyl)adamantan-1-amine]", "inhibition at 100 µM": "0 to 30"}, {"smiles": "COc1ccc(-c2cc(CNC34CC5CC(CC(C5)C3)C4)on2)cc1", "note": "[Example 122a, N-((3-(4-methoxyphenyl)isoxazol-5-yl)methyl)adamantan-1-amine]", "inhibition at 100 µM": "0 to 30"}, {"smiles": "CC(C)(C)c1nc(CNC23CC4CC(CC(C4)C2)C3)no1", "note": "[Example 103a, N-((5-(tert-butyl)-1,2,4-oxadiazol-3-yl)methyl)adamantan-1-amine]", "inhibition at 100 µM": "0 to 30"}, {"smiles": "c1csc(-c2ncc(CNC34CC5CC(CC(C5)C3)C4)cn2)c1", "note": "[Example 61a, N-((2-(thiophen-2-yl)pyrimidin-5-yl)methyl)adamantan-1-amine]", "inhibition at 100 µM": "0 to 30"}, {"smiles": "Cc1ccc(-c2nc(CNC34CC5CC(CC(C5)C3)C4)no2)cc1", "note": "[Example 128a, N-((5-(p-tolyl)-1,2,4-oxadiazol-3-yl)methyl)adamantan-1-amine]", "inhibition at 100 µM": "0 to 30"}, {"smiles": "FC(F)(F)Oc1ccc(CNC23CC4CC(CC(C4)C2)C3)cc1", "note": "[Example 4a, Adamantan-1-yl-(4-trifluoromethoxy-benzyl)-amine]", "inhibition at 100 µM": "0 to 30"}, {"smiles": "Oc1cc(-c2ccccc2)ccc1CNC12CC3CC(CC(C3)C1)C2", "note": "[Example 47a, 4-(Adamantan-1-ylaminomethyl)-biphenyl-3-ol]", "inhibition at 100 µM": "0 to 30"}, {"smiles": "Cc1ncc(CN(Cc2cnc(C)s2)C23CC4CC(CC(C4)C2)C3)s1", "note": "[Example 202a, N,N-bis((2-methylthiazol-5-yl)methyl)adamantan-1-amine]", "inhibition at 100 µM": "0 to 30"}, {"smiles": "c1coc(-c2ccc(CNC34CC5CC(CC(C5)C3)C4)s2)c1", "note": "[Example 136a, N-((5-(Furan-2-yl)thiophen-2-yl)methyl)adamantan-1-amine]", "inhibition at 100 µM": "0 to 30"}, {"smiles": "OC1CCC(CNC23CC4CC(CC(C4)C2)C3)CC1", "note": "(stereo not shown) [Example 170a, 4-(Adamantan-1-ylaminomethyl)-cyclohexanol]", "inhibition at 100 µM": "0 to 30"}, {"smiles": "Cc1ccc(-c2ccc(CNC34CC5CC(CC(C5)C3)C4)s2)s1", "note": "[Example 141a, N-((5′-methyl-[2,2′-bithiophen]-5-yl)methyl)adamantan-1-amine]", "inhibition at 100 µM": "0 to 30"}, {"smiles": "Cn1cc(C(F)(F)F)c(-c2ccc(CNC34CC5CC(CC(C5)C3)C4)s2)n1", "note": "[Example 155a, N-((5-(1-methyl-4-(trifluoromethyl)-1H-pyrazol-3-yl)thiophen-2-yl)methyl)adamantan-1-amine]", "inhibition at 100 µM": "0 to 30"}, {"smiles": "c1cnc2ccc(CNC34CC5CC(CC(C5)C3)C4)cc2c1", "note": "[Example 39a, Adamantan-1-yl-quinolin-6-ylmethyl-amine]", "inhibition at 100 µM": "0 to 30"}, {"smiles": "Brc1cnc(CNC23CC4CC(CC(C4)C2)C3)[nH]1", "note": "[Example 89a, Adamantan-1-yl-(5-bromo-1H-imidazol-2-ylmethyl)-amine]", "inhibition at 100 µM": "31 to 95"}, {"smiles": "C(#Cc1ccccc1)CNC12CC3CC(CC(C3)C1)C2", "note": "[Example 198a, N-(3-phenylprop-2-yn-1-yl)adamantan-1-amine]", "inhibition at 100 µM": "0 to 30"}, {"smiles": "COc1cccc(COc2ccc(CNC34CC5CC(CC(C5)C3)C4)cc2)c1", "note": "[Example 14a, Adamantan-1-yl-[4-(3-methoxy-benzyloxy)-benzyl]-amine]", "inhibition at 100 µM": "0 to 30"}, {"smiles": "c1coc(CNC23CC4CC(CC(C4)C2)C3)c1", "note": "[Example 69a, Adamantan-1-yl-furan-2-ylmethyl-amine]", "inhibition at 100 µM": "31 to 95"}, {"smiles": "Cc1cc(CNC23CC4CC(CC(C4)C2)C3)no1", "note": "[Example 95a, N-((5-methylisoxazol-3-yl)methyl)adamantan-1-amine]", "inhibition at 100 µM": "31 to 95"}, {"smiles": "CSc1ccc(CNC23CC4CC(CC(C4)C2)C3)s1", "note": "[Example 90a]", "inhibition at 100 µM": "31 to 95"}, {"smiles": "c1csc(-c2noc(CNC34CC5CC(CC(C5)C3)C4)n2)c1", "note": "[Example 148a, N-((3-(thiophen-2-yl)-1,2,4-oxadiazol-5-yl)methyl)adamantan-1-amine]", "inhibition at 100 µM": "0 to 30"}, {"smiles": "CCc1nc(CNC23CC4CC(CC(C4)C2)C3)no1", "note": "[Example 165a]", "inhibition at 100 µM": "31 to 95"}, {"smiles": "c1c(CNC23CC4CC(CC(C4)C2)C3)noc1C1CC1", "note": "[Example 107a, N-((5-cyclopropylisoxazol-3-yl)methyl)adamantan-1-amine]", "inhibition at 100 µM": "0 to 30"}]}, {"molecular_target": "AM2 S31 (wild-type serine at position 31 in the M2 protein), influenza virus A/Udorn/72 (Influenza A virus, UniProt P0DOF5)", "assay": "cell-based", "settings": "Table 1; 100 uM; Xenopus oocytes, pH 5.5, -20 mV; read-out: S31 OOcyte Inhibition at 100 uM (%)", "units": {"inhibition at 100 µM": "%"}, "values": [{"smiles": "Oc1ccc(CNC2C3CC4CC(C3)CC2C4)cc1O", "note": "(stereo not shown) [Example 101, 4-(Adamantan-2-ylaminomethyl)-benzene-1,2-diol]", "inhibition at 100 µM": "31 to 95"}, {"smiles": "OC1CCN(C2C3CC4CC(C3)CC2C4)CC1", "note": "(stereo not shown) [Example 104, 1-Adamantan-2-yl-piperidin-4-ol]", "inhibition at 100 µM": "0 to 30"}, {"smiles": "Oc1cccc(CNC23CC4CC(CC(C4)C2)C3)c1O", "note": "[Example 64, 3-(Adamantan-1-ylaminomethyl)-benzene-1,2-diol]", "inhibition at 100 µM": "31 to 95"}, {"smiles": "c1cnn(-c2ccc(CNC34CC5CC(CC(C5)C3)C4)cc2)c1", "note": "[Example 35, Adamantan-1-yl-(4-pyrazol-1-yl-benzyl)-amine]", "inhibition at 100 µM": "0 to 30"}, {"smiles": "c1cc(CNC23CC4CC(CC(C4)C2)C3)c2cc[nH]c2c1", "note": "[Example 96, Adamantan-1-yl-(1H-indol-4-ylmethyl)-amine]", "inhibition at 100 µM": "31 to 95"}, {"smiles": "Fc1ccc(CNC23CC4CC(CC(C4)C2)C3)cc1", "note": "[Example 27, Adamantan-1-yl-(4-fluoro-benzyl)-amine]", "inhibition at 100 µM": "31 to 95"}, {"smiles": "Oc1ccc(CNC23CC4CCC(CC(C4)C2)C3)c(O)c1", "note": "[Example 110, 4-(Tricyclo[4.3.1.13,8]undec-1-ylaminomethyl)-benzene-1,3-diol]", "inhibition at 100 µM": "31 to 95"}, {"smiles": "c1cc(-c2nnn[nH]2)ccc1CNC12CC3CC(CC(C3)C1)C2", "note": "[Example 15, Adamantan-1-yl-[4-(1H-tetrazol-5-yl)-benzyl]amine]", "inhibition at 100 µM": "0 to 30"}, {"smiles": "O=C(Oc1ccc(CNC23CC4CC(CC(C4)C2)C3)cc1)c1cccs1", "note": "[Example 37, Thiophene-2-carboxylic acid 4-(adamantan-1-ylaminomethyl)-phenyl ester]", "inhibition at 100 µM": "0 to 30"}, {"smiles": "Oc1c(F)c(F)c(CNC23CC4CC(CC(C4)C2)C3)c(F)c1F", "note": "[Example 71, 4-(Adamantan-1-ylaminomethyl)-2,3,5,6-tetrafluoro-phenol]", "inhibition at 100 µM": "0 to 30"}, {"smiles": "c1c(CNC23CC4CC(CC(C4)C2)C3)sc2c1CSC2", "note": "[Example 84, Adamantan-1-yl-(4,6-dihydro-thieno[3,4-b]thiophen-2-ylmethyl)-amine]", "inhibition at 100 µM": "31 to 95"}, {"smiles": "Nc1ccc(CNC23CC4CC(CC(C4)C2)C3)cc1", "note": "[Example 11, Adamantan-1-yl-(4-amino-benzyl)-amine]", "inhibition at 100 µM": "31 to 95"}, {"smiles": "Clc1c(CNC23CC4CC(CC(C4)C2)C3)nc2sccn12", "note": "[Example 87, Adamantan-1-yl-(5-chloro-imidazo[2,1-b]thiazol-6-ylmethyl)-amine]", "inhibition at 100 µM": "0 to 30"}, {"smiles": "CC(=O)Oc1ccc(CNC23CC4CC(CC(C4)C2)C3)c(O)c1", "note": "[Example 60, Acetic acid 4-(adamantan-1-ylaminomethyl)-3-hydroxy-phenyl ester]", "inhibition at 100 µM": "31 to 95"}, {"smiles": "CC1(C)C2CCC(CNCc3ccc(O)cc3O)C1C2", "note": "(stereo not shown) [Example 114, 4-{[(6,6-Dimethyl-bicyclo[3.1.1]hept-2-ylmethyl)-amino]methyl}-benzene-1,3-diol]", "inhibition at 100 µM": "31 to 95"}]}, {"molecular_target": "AM2 S31 (wild-type serine at position 31 in the M2 protein), influenza virus A/Udorn/72 (Influenza A virus, UniProt P0DOF5)", "assay": "cell-based", "settings": "Table 3; 100 uM; Xenopus oocytes, pH 5.5, -20 mV; read-out: S31 OOcyte Inhibition at 100 uM (%)", "units": {"inhibition at 100 µM": "%"}, "values": [{"smiles": "COc1ccc(-c2cc(CNC34CC5CC(CC(C5)C3)C4)no2)c(OC)c1", "note": "[Example 41b, N-((5-(2,4-dimethoxyphenyl)isoxazol-3-yl)methyl)adamantan-1-amine]", "inhibition at 100 µM": "0 to 30"}, {"smiles": "C(#Cc1cccs1)CNC12CC3CC(CC(C3)C1)C2", "note": "[Example 88b]", "inhibition at 100 µM": "0 to 30"}, {"smiles": "Cc1csc(-c2ccc(CNC34CC5CC(CC(C5)C3)C4)s2)c1", "note": "[Example 51b, N-((4′-Methyl-[2,2′-bithiophen]-5-yl)methyl)adamantan-1-amine]", "inhibition at 100 µM": "0 to 30"}, {"smiles": "Cn1cc(CNC23CC4CC(CC(C4)C2)C3)nn1", "note": "[Example 18b, N-((1-methyl-1H-1,2,3-triazol-4-yl)methyl)adamantan-1-amine]", "inhibition at 100 µM": "0 to 30"}, {"smiles": "CCCc1cc(CNC23CC4CC(CC(C4)C2)C3)no1", "note": "[Example 26b, N-((5-propylisoxazol-3-yl)methyl)adamantan-1-amine]", "inhibition at 100 µM": "0 to 30"}, {"smiles": "c1ccc(-c2cnc(CNC34CC5CC(CC(C5)C3)C4)[nH]2)cc1", "note": "[Example 53b, N-((5-phenyl-1H-imidazol-2-yl)methyl)adamantan-1-amine]", "inhibition at 100 µM": "0 to 30"}, {"smiles": "Clc1nc(CNC23CC4CC(CC(C4)C2)C3)ns1", "note": "[Example 10b, N-((5-chloro-1,2,4-thiadiazol-3-yl)methyl)adamantan-1-amine]", "inhibition at 100 µM": "31 to 95"}, {"smiles": "Brc1ccccc1-c1cc(CNC23CC4CC(CC(C4)C2)C3)no1", "note": "[Example 43b, N-((5-(2-bromophenyl)isoxazol-3-yl)methyl)adamantan-1-amine]", "inhibition at 100 µM": "0 to 30"}, {"smiles": "c1cc2[nH]c(CNC34CC5CC(CC(C5)C3)C4)cc2o1", "note": "[Example 78b, Adamantan-1-yl-(4H-furo[3,2-b]pyrrol-5-ylmethyl)-amine]", "inhibition at 100 µM": "31 to 95"}, {"smiles": "COc1ncc(CNC23CC4CC(CC(C4)C2)C3)c(OC)n1", "note": "[Example 64b, N-((2,4-dimethoxypyrimidin-5-yl)methyl)adamantan-1-amine]", "inhibition at 100 µM": "0 to 30"}, {"smiles": "c1csc(-c2ccc(CNC34CC5CC(CC(C5)C3)C4)nn2)c1", "note": "[Example 71b, Adamantan-1-yl-(6-thiophen-2-yl-pyridazin-3-ylmethyl)-amine]", "inhibition at 100 µM": "0 to 30"}, {"smiles": "COc1ccc(Cc2nc(CNC34CC5CC(CC(C5)C3)C4)no2)cc1OC", "note": "[Example 28b, N-((5-(3,4-dimethoxybenzyl)-1,2,4-oxadiazol-3-yl)methyl)adamantan-1-amine]", "inhibition at 100 µM": "0 to 30"}, {"smiles": "C1COC(c2nc(CNC34CC5CC(CC(C5)C3)C4)no2)C1", "note": "(stereo not shown) [Example 21b, N-((5-(tetrahydrofuran-2-yl)-1,2,4-oxadiazol-3-yl)methyl)adamantan-1-amine]", "inhibition at 100 µM": "0 to 30"}]}]}
